According to patent US20250032651A1, “[177LU] LUTETIUM-PSMA I&T COMPOSITION AND DOSIMETRY, KIT, METHOD OF MAKING, AND METHOD OF USING THEREOF” (Curium US LLC, priority 2022, published 2025):
“And” between values parts separate entries of the source, which are not always exact repeats. Identical values can stand only once.

Test: Plasma PK: gamma-counted plasma radioactivity, bi-exponential fit
Format: in vivo, human
Settings: plasma
Procedure: Additionally, for PK assessment, whole blood samples were collected at six timepoints (Pre-Infusion, 1 h, 4 h, 24 h, 48 h, and 168 h) and processed to extract plasma. All plasma samples were gamma counted locally for analysis of pharmacokinetics.
PK plasma samples were collected at pre-Infusion, 1 h, 4 h, 24 h, 48 h, and 168 h, and counted for radioactivity. Blood samples were first centrifuged to extract plasma, and then the radioactivity in plasma was counted in a gamma counter.
Whole blood samples were collected as detailed in the protocol Schedule of Events i.e. pre-injection, and then at 1 h, 4 h, 24 h, 48 h, and 168 h post-injection. The samples were first centrifuged to separate plasma, and the radioactivity in the plasma was then measured using a gamma counter. Plasma concentrations were subsequently fitted with a bi-exponential function to derive outcome parameters such as the half-life and clearance rate of the radiopharmaceutical in the plasma.

[1] = Cycle 3, individual patient values

## O=C([O-])CC[C@H](NC(=O)N[C@@H](CCCCNC(=O)CCCCCCC(=O)NCCCC[C@@H](NC(=O)[C@@H](Cc1ccccc1)NC(=O)[C@@H](Cc1ccc(O)c(I)c1)NC(=O)CC[C@H](C(=O)[O-])N1CCN(CC(=O)[O-])CCN(CC(=O)[O-])CCN(CC(=O)[O-])CC1)C(=O)[O-])C(=O)[O-])C(=O)[O-].[177Lu+3].[H+].[H+].[H+].[H+].[H+] [^177Lu-PSMA I&T, (3S,7S,26R,29R,32R,37R)-29-benzyl-32-(4-hydroxy-3-iodobenzyl)-5,13,20,28,31,34-hexaoxo-37-(4,7,10-tris(carboxymethyl)-1,4,7,10-tetraazacyclododecan-1-yl)-4,6,12,21,27,30,33-heptaazaheptatriacontane-1,3,7,26,37-pentacarboxylic acid; lutetium-177 (III)]
Cycle 1, min
  AUC Total: 3.07 fIA/L × min
  Clearance Rate: 2.89 L/h
  Peak Concentration Value: 0.01 fIA/L
  Time of Peak Concentration: 33.00 min
  Vc: 9.92 L
  Vd: 54.60 L
Cycle 3, Mean (n=15)
  AUC Total: 25.58 fIA/L × min
  Peak Concentration Value: 0.05 fIA/L
  Rate Clearance: 9.65 L/h
  Vc: 16.40 L
  Vd: 141.49 L
[1]
  AUC Total: 26.16 fIA/L x min and 29.32 fIA/L x min and 20.20 fIA/L x min (2×) and 36.74 fIA/L x min and 16.57 fIA/L x min and 19.01 fIA/L x min and 17.88 fIA/L x min and 23.21 fIA/L x min and 13.86 fIA/L x min and 24.55 fIA/L x min and 22.70 fIA/L x min and 39.62 fIA/L x min and 28.52 fIA/L x min and 36.09 fIA/L x min and 29.33 fIA/L x min
  Clearance Rate: 7.68 L/h and 6.78 L/h and 7.81 L/h and 4.95 L/h and 14.60 L/h and 18.27 L/h and 9.22 L/h and 8.52 L/h and 25.73 L/h and 11.43 L/h and 13.59 L/h and 3.34 L/h and 5.74 L/h and 3.01 L/h and 4.07 L/h
  Distribution Half-Life: 2.07 h and 1.69 h and 1.88 h and 2.30 h and 2.06 h and 1.64 h and 2.55 h and 2.28 h and 1.85 h and 2.11 h and 3.17 h and 2.61 h and 2.22 h
  Elimination Half-Life: 12.51 h and 11.70 h and 10.92 h and 9.33 h and 9.92 h and 8.16 h and 9.10 h and 9.11 h and 10.32 h and 9.75 h and 9.63 h and 10.67 h and 18.37 h and 14.16 h
  Peak Concentration Value: 0.04 fIA/L (7×) and 0.05 fIA/L (4×) and 0.06 fIA/L (2×) and 0.07 fIA/L and 0.03 fIA/L (2×)
  Time of Peak Concentration: 60.00 min (5×) and 68.00 min and 61.00 min (3×) and 66.00 min (2×) and 55.00 min (2×) and 65.00 min and 59.00 min (2×)
  Vc: 11.98 L and 11.38 L and 21.49 L (2×) and 10.66 L and 16.42 L and 16.53 L and 24.53 L and 17.80 L and 20.07 L and 13.50 L and 14.30 L and 15.13 L and 18.12 L and 16.40 L and 17.66 L
  Vd: 129.70 L and 106.80 L and 105.05 L and 70.92 L and 171.89 L and 239.78 L and 121.21 L and 126.73 L and 361.81 L and 158.71 L and 191.15 L and 51.46 L and 152.16 L and 61.59 L and 73.36 L
Cycle 3, individual patients
  AUC Total: 29.32 fIA/L × min and 20.20 fIA/L × min (2×) and 36.74 fIA/L × min and 16.57 fIA/L × min and 19.01 fIA/L × min and 17.88 fIA/L × min and 23.21 fIA/L × min and 13.86 fIA/L × min and 24.55 fIA/L × min and 22.70 fIA/L × min and 39.62 fIA/L × min and 28.52 fIA/L × min and 36.09 fIA/L × min and 29.33 fIA/L × min and 26.16 fIA/L × min
  Peak Concentration Value: 0.06 fIA/L (2×) and 0.04 fIA/L (7×) and 0.07 fIA/L and 0.03 fIA/L (2×) and 0.05 fIA/L (4×)
  Vc: 11.38 L and 21.49 L (2×) and 10.66 L and 16.42 L and 16.53 L and 24.53 L and 17.80 L and 20.07 L and 13.50 L and 14.30 L and 15.13 L and 18.12 L and 16.40 L and 17.66 L and 11.98 L
  Vd: 106.80 L and 105.05 L and 70.92 L and 171.89 L and 239.78 L and 121.21 L and 126.73 L and 361.81 L and 158.71 L and 191.15 L and 51.46 L and 152.16 L and 61.59 L and 73.36 L and 129.70 L
Cycle 3, max
  AUC Total: 39.62 fIA/L × min
  Peak Concentration Value: 0.07 fIA/L
  Rate Clearance: 25.73 L/h
  Vc: 24.53 L
  Vd: 361.81 L
Cycle 3, median
  AUC Total: 24.55 fIA/L × min
  Peak Concentration Value: 0.04 fIA/L
  Rate Clearance: 7.81 L/h
  Vc: 16.42 L
  Vd: 126.73 L
Cycle 3, min
  AUC Total: 13.86 fIA/L × min
  Peak Concentration Value: 0.03 fIA/L
  Rate Clearance: 3.01 L/h
  Vc: 10.66 L
  Vd: 51.46 L
Cycle 3, n = 15
  AUC Total, Mean: 25.58 fIA/L x min
  AUC Total, max: 39.62 fIA/L x min
  AUC Total, median: 24.55 fIA/L x min
  AUC Total, min: 13.86 fIA/L x min
  Clearance Rate, Mean: 9.65 L/h
  Clearance Rate, max: 25.73 L/h
  Clearance Rate, median: 7.81 L/h
  Clearance Rate, min: 3.01 L/h
  Distribution Half-Life, Mean: 2.17 h
  Distribution Half-Life, max: 3.17 h
  Distribution Half-Life, median: 2.07 h
  Distribution Half-Life, min: 1.64 h
  Elimination Half-Life, Mean: 10.89 h
  Elimination Half-Life, max: 18.37 h
  Elimination Half-Life, median: 9.92 h
  Elimination Half-Life, min: 8.16 h
  Peak Concentration Value, Mean: 0.05 fIA/L
  Peak Concentration Value, max: 0.07 fIA/L
  Peak Concentration Value, median: 0.04 fIA/L
  Peak Concentration Value, min: 0.03 fIA/L
  Time of Peak Concentration: 55.00 min
  Time of Peak Concentration, Mean: 60.67 min
  Time of Peak Concentration, max: 68.00 min
  Time of Peak Concentration, median: 60.00 min
  Vc, Mean: 16.40 L
  Vc, max: 24.53 L
  Vc, median: 16.42 L
  Vc, min: 10.66 L
  Vd, Mean: 141.49 L
  Vd, max: 361.81 L
  Vd, median: 126.73 L
  Vd, min: 51.46 L
